Data published in ChEMBL document CHEMBL4814080, “Design, Synthesis, and Biological Evaluation of Novel 1,3-Oxazole Sulfonamides as Tubulin Polymerization Inhibitors” (ACS Med Chem Lett, 2021).
Activity calls are given as the source filed them. The rule behind the calls is not given here.

Experiments:
[1] = system: Panel NCI-60 (60 carcinoma cell lines); experiment: Cytotoxicity against human Panel NCI-60 (60 carcinoma cell lines) assessed as cell growth at 10 uM after 48 hrs by sulforhodamine B assay relative to control; type: functional; details: read-out: Activity
[2] = system: leukaemia cell line; experiment: Cytotoxicity against human leukaemia cell line assessed as cell growth inhibition measured after 48 hrs by sulforhodamine B assay; type: functional; details: for CC50: read-out: LC50 (the source's name)
[3] = (§1) Inhibition of porcine brain tubulin polymerization incubated for 60 mins by spectrophotometry; type: tissue-based, Sus scrofa
[4] = system: SR; experiment: Cytotoxicity against human SR cells assessed as cell growth at 10 uM after 48 hrs by sulforhodamine B assay relative to control; type: functional; details: read-out: Activity
[5] = system: NCI/ADR-RES; experiment: Cytotoxicity against human NCI/ADR-RES cells assessed as cell growth at 10 uM after 48 hrs by sulforhodamine B assay relative to control; type: functional; details: read-out: Activity
[6] = system: TK-10; experiment: Cytotoxicity against human TK-10 cells assessed as cell growth at 10 uM after 48 hrs by sulforhodamine B assay relative to control; type: functional; details: read-out: Activity
[7] = system: COLO 205; experiment: Cytotoxicity against human COLO 205 cells assessed as cell growth at 10 uM after 48 hrs by sulforhodamine B assay relative to control; type: functional; details: read-out: Activity
[8] = system: SK-OV-3; experiment: Cytotoxicity against human SK-OV-3 cells assessed as cell growth at 10 uM after 48 hrs by sulforhodamine B assay relative to control; type: functional; details: read-out: Activity
[9] = system: Panel NCI-60 (60 carcinoma cell lines); experiment: Cytotoxicity against human Panel NCI-60 (60 carcinoma cell lines) assessed as cell growth inhibition measured after 48 hrs by sulforhodamine B assay; type: functional
[10] = system: MOLT-4; experiment: Cytotoxicity against human MOLT-4 cells assessed as cell growth at 10 uM after 48 hrs by sulforhodamine B assay relative to control; type: functional; details: read-out: Activity
[11] = organism: Sus scrofa; experiment: as §1; type: tissue-based

Compound | growth at 10 µM [1] [%] | GI50 [2] [µM] | TGI [2] [µM] | CC50 [2] [µM] | also measured
O=S(=O)(Nc1cc(Cl)c(F)c(Cl)c1)c1ccc(-c2cnc(C3CC3)o2)cc1 | 37.1 | – | – | – | –
O=S(=O)(Nc1ccc(Cl)c(Cl)c1)c1ccc(-c2cnc(C3CC3)o2)cc1 | 25.3 | 0.416 | 62.1 | > 100 | IC50 [3]: < 0.08 µM
O=S(=O)(Nc1ccc(Cl)c(F)c1)c1ccc(-c2cnc(C3CC3)o2)cc1 | 23.8 | 0.38 | 63 | > 100 | –
Cc1ccc(Cl)c(NS(=O)(=O)c2ccc(-c3cnc(C4CC4)o3)cc2)c1 | 25.3 | 0.0488 | 52.8 | > 100 | –
O=S(=O)(Nc1ccc(Br)cc1)c1ccc(-c2cnc(C3CC3)o2)cc1 | 26.9 | – | – | – | growth at 10 µM [4]: 12.7%; growth at 10 µM [5]: -2.2%; growth at 10 µM [6]: 64.1%; growth at 10 µM [7]: 23.9%; growth at 10 µM [8]: 35.5%; GI50 [9]: 2.75 µM; LC50 (concentration causing 50% net cell kill) [9]: 54 µM; growth at 10 µM [10]: 15.8%
COc1cc(NS(=O)(=O)c2ccc(-c3cnc(C4CC4)o3)cc2)ccc1F | 25.9 | 0.328 | 75.7 | > 100 | –
CN(c1ccc(F)cc1)S(=O)(=O)c1ccc(-c2cnc(C3CC3)o2)cc1 | 31.8 | – | – | – | GI50 [9]: 1.18 µM
N#Cc1ccc(NS(=O)(=O)c2ccc(-c3cnc(C4CC4)o3)cc2)cc1 | 95.7 | – | – | – | –
Cc1ccc(NS(=O)(=O)c2ccc(-c3cnc(C4CC4)o3)cc2)cc1C(F)(F)F | 60.5 | – | – | – | –
CC(=O)O[C@H]1C(=O)[C@@]2(C)[C@H]([C@H](OC(=O)c3ccccc3)[C@]3(O)C[C@H](OC(=O)[C@H](O)[C@@H](NC(=O)c4ccccc4)c4ccccc4)C(C)=C1C3(C)C)[C@]1(OC(C)=O)CO[C@@H]1C[C@@H]2O | – | – | – | – | inhibition [11]: inactive
O=S(=O)(Nc1ccc2c(c1)OC(F)(F)O2)c1ccc(-c2cnc(C3CC3)o2)cc1 | 41.7 | – | – | – | –
Cc1ccc(NS(=O)(=O)c2ccc(-c3cnc(C4CC4)o3)cc2)cc1C | 22.8 | 0.42 | > 100 | > 100 | –
COc1ccc(NS(=O)(=O)c2ccc(-c3cnc(C4CC4)o3)cc2)cc1 | 56.1 | – | – | – | –
O=S(=O)(c1ccc(-c2cnc(C3CC3)o2)cc1)N1CCOCC1 | 94.2 | – | – | – | growth at 10 µM [4]: 91.3%; growth at 10 µM [5]: 93.5%; growth at 10 µM [6]: 101%; growth at 10 µM [7]: 95%; growth at 10 µM [8]: 112%; growth at 10 µM [10]: 95.3%
O=S(=O)(Nc1cc(F)cc(Cl)c1)c1ccc(-c2cnc(C3CC3)o2)cc1 | 30.3 | 1.44 | 77.5 | > 100 | –
O=S(=O)(NCC(F)F)c1ccc(-c2cnc(C3CC3)o2)cc1 | 92.2 | – | – | – | growth at 10 µM [4]: 89.3%; growth at 10 µM [5]: 92.3%; growth at 10 µM [6]: 104%; growth at 10 µM [7]: 94.5%; growth at 10 µM [8]: 101%; growth at 10 µM [10]: 82.5%
O=S(=O)(Nc1ccc(C(F)(F)F)c(Cl)c1)c1ccc(-c2cnc(C3CC3)o2)cc1 | 77.1 | – | – | – | –
O=S(=O)(Nc1ccc(N2CCOCC2)c(F)c1)c1ccc(-c2cnc(C3CC3)o2)cc1 | 92.2 | – | – | – | –
Cc1cc(NS(=O)(=O)c2ccc(-c3cnc(C4CC4)o3)cc2)ccc1I | 35.9 | – | – | – | –
O=S(=O)(Nc1ccc2c(c1)OCO2)c1ccc(-c2cnc(C3CC3)o2)cc1 | 35.8 | – | – | – | –
Cc1cc(NS(=O)(=O)c2ccc(-c3cnc(C4CC4)o3)cc2)ccc1Cl | 21.7 | 0.216 | 33.4 | > 100 | IC50 [3]: < 0.08 µM
O=S(=O)(Nc1ccc(OC(F)F)cc1)c1ccc(-c2cnc(C3CC3)o2)cc1 | 63.1 | – | – | – | –
O=S(=O)(Nc1ccccc1Cl)c1ccc(-c2cnc(C3CC3)o2)cc1 | 27.4 | 0.429 | 49.7 | > 100 | –
O=S(=O)(Nc1ccc(C(F)(F)F)cc1)c1ccc(-c2cnc(C3CC3)o2)cc1 | 94.5 | – | – | – | –
O=S(=O)(Nc1cc(F)cc(F)c1)c1ccc(-c2cnc(C3CC3)o2)cc1 | 35.4 | 2.14 | 80 | > 100 | –
O=S(=O)(Nc1cccc(Cl)c1)c1ccc(-c2cnc(C3CC3)o2)cc1 | 24.2 | 0.477 | 54.2 | > 100 | –

Compound | growth at 10 µM [1] [%] | GI50 [2] [µM] | TGI [2] [µM] | CC50 [2] [µM] | also measured
O=S(=O)(Nc1ccc(I)cc1F)c1ccc(-c2cnc(C3CC3)o2)cc1 | 49.8 | – | – | – | –
O=S(=O)(Nc1ccc(Cl)c(C(F)(F)F)c1)c1ccc(-c2cnc(C3CC3)o2)cc1 | 11.4 | – | – | – | growth at 10 µM [4]: 3.5%; growth at 10 µM [5]: 2.9%; growth at 10 µM [6]: 3%; growth at 10 µM [7]: 2.7%; growth at 10 µM [8]: 0.8%; GI50 [9]: 0.655 µM; LC50 (concentration causing 50% net cell kill) [9]: 55.4 µM; IC50 [3]: 0.22 µM; growth at 10 µM [10]: 5.2%
O=S(=O)(Nc1ccc(Cl)cc1Cl)c1ccc(-c2cnc(C3CC3)o2)cc1 | 25 | 0.481 | 74.5 | > 100 | –
O=C1COCCN1c1ccc(NS(=O)(=O)c2ccc(-c3cnc(C4CC4)o3)cc2)cc1 | 96.7 | – | – | – | –
O=S(=O)(Nc1ccc2ccccc2c1)c1ccc(-c2cnc(C3CC3)o2)cc1 | 28.9 | – | – | – | growth at 10 µM [4]: 16.5%; growth at 10 µM [5]: 9.7%; growth at 10 µM [6]: 61.9%; growth at 10 µM [7]: 1.5%; growth at 10 µM [8]: 32.7%; GI50 [9]: 1.84 µM; LC50 (concentration causing 50% net cell kill) [9]: 78.6 µM; growth at 10 µM [10]: 20.2%
CC(=O)c1ccc(NS(=O)(=O)c2ccc(-c3cnc(C4CC4)o3)cc2)cc1 | 93.5 | – | – | – | –
COc1ccc(NS(=O)(=O)c2ccc(-c3cnc(C4CC4)o3)cc2)cc1Cl | 32.6 | – | – | – | –
Cc1cc(F)cc(NS(=O)(=O)c2ccc(-c3cnc(C4CC4)o3)cc2)c1 | 28.1 | 0.138 | 7.25 | 78 | –
Cc1ccc(NS(=O)(=O)c2ccc(-c3cnc(C4CC4)o3)cc2)cc1 | 33.1 | – | – | – | –
O=S(=O)(Nc1ccc(Br)c(Cl)c1)c1ccc(-c2cnc(C3CC3)o2)cc1 | 21.5 | 0.491 | 70.3 | > 100 | IC50 [3]: < 0.08 µM
O=S(=O)(Nc1ccc(F)cc1)c1ccc(-c2cnc(C3CC3)o2)cc1 | 28.1 | – | – | – | growth at 10 µM [4]: 11.6%; growth at 10 µM [5]: -0.9%; growth at 10 µM [6]: 32.5%; growth at 10 µM [7]: 20.2%; growth at 10 µM [8]: 39.7%; growth at 10 µM [10]: 12.7%
O=S(=O)(Nc1ccc(C2CC2)cc1)c1ccc(-c2cnc(C3CC3)o2)cc1 | 63.4 | – | – | – | –
O=S(=O)(Nc1ccc(I)c(Cl)c1)c1ccc(-c2cnc(C3CC3)o2)cc1 | 29.8 | 1.01 | 19.6 | > 100 | –
Cc1cc(Cl)ccc1NS(=O)(=O)c1ccc(-c2cnc(C3CC3)o2)cc1 | 24 | 0.277 | 54.7 | > 100 | –
O=S(=O)(Nc1ccc(F)cc1F)c1ccc(-c2cnc(C3CC3)o2)cc1 | 29.1 | 0.356 | 66 | > 100 | –
CN(c1ccc(Cl)cc1)S(=O)(=O)c1ccc(-c2cnc(C3CC3)o2)cc1 | 30.6 | – | – | – | –
O=S(=O)(Nc1ccc(I)cc1)c1ccc(-c2cnc(C3CC3)o2)cc1 | 57.3 | – | – | – | –
O=S(=O)(Nc1cccc2ccccc12)c1ccc(-c2cnc(C3CC3)o2)cc1 | 28.6 | 0.0447 | 22.5 | > 100 | –
CS(=O)(=O)CCNS(=O)(=O)c1ccc(-c2cnc(C3CC3)o2)cc1 | 94.1 | – | – | – | growth at 10 µM [4]: 80.3%; growth at 10 µM [5]: 94.1%; growth at 10 µM [6]: 99.1%; growth at 10 µM [7]: 94.4%; growth at 10 µM [8]: 105%; growth at 10 µM [10]: 94.1%
O=S(=O)(Nc1cc(Cl)cc(Cl)c1)c1ccc(-c2cnc(C3CC3)o2)cc1 | 36.9 | – | – | – | –
O=S(=O)(Nc1ccc(I)cc1Cl)c1ccc(-c2cnc(C3CC3)o2)cc1 | 39.5 | – | – | – | –
Cc1cc(Cl)cc(NS(=O)(=O)c2ccc(-c3cnc(C4CC4)o3)cc2)c1 | 31.6 | 0.175 | 7.04 | 84.9 | –
O=S(=O)(Nc1ccc(Cl)cc1)c1ccc(-c2cnc(C3CC3)o2)cc1 | 24.3 | – | – | – | growth at 10 µM [4]: 9.9%; growth at 10 µM [5]: 4.4%; growth at 10 µM [6]: 54.2%; growth at 10 µM [7]: 9%; growth at 10 µM [8]: 30.2%; GI50 [9]: 1.43 µM; LC50 (concentration causing 50% net cell kill) [9]: 57.4 µM; growth at 10 µM [10]: 14.2%
O=S(=O)(Nc1ccc(F)c(Cl)c1)c1ccc(-c2cnc(C3CC3)o2)cc1 | 23 | 0.26 | 73.7 | > 100 | –
CN(c1ccc(Br)cc1)S(=O)(=O)c1ccc(-c2cnc(C3CC3)o2)cc1 | 31.4 | – | – | – | GI50 [9]: 3.92 µM
O=S(=O)(Nc1cc(Cl)ccc1Cl)c1ccc(-c2cnc(C3CC3)o2)cc1 | 34.6 | 1.02 | > 100 | > 100 | –
